The values that follow come from patent US12435061B2 (priority 2020, dated 2025).

Test [1] addresses T1, hTRPV3 (Homo sapiens (Human), UniProt Q8NET8). The test can be described thus: hTRPV3 HAMA IC50 assay (Hamamatsu FDSS6000 calcium flux, TRex-293 cells). In general terms: Calcium assays in cells follow changes in intracellular calcium, usually with a dye or a luminescent sensor.
Procedure: IC50s were calculated using CBIS from ChemInnovation (San Diego).
Test [2] has as its target T1, hTRPV3. The test can be described thus: Whole-cell patch clamp, hTRPV3 Phase 1 / Phase 2 currents. The format is cell-based. An outline of the steps: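 Currents are activated by 20 μM 2-APB or by perfusate at 28 °C or warmer, in Ringer's solution, and quantified at ±80 mV.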
(In patch-clamp work, channel activity is measured electrically.)

Where [3] appears, read: Phase 1 current, inward, whole-cell patch clamp, read-out: hTRPV3 Patch P1 Inwd.
Setting [4] is: Phase 1 current, read-out: hTRPV3 (nM) (Phase 1).
Setting [5] is: Phase 2 current, inward, whole-cell patch clamp, read-out: hTRPV3 Patch P2 Inwd.
The mark [6] stands for this setting: Phase 2 current, read-out: hTRPV3 (nM) (Phase 2).

Read-outs that look alike come from different tables or passages of the source.

T1 sequence (Q8NET8 whole entry): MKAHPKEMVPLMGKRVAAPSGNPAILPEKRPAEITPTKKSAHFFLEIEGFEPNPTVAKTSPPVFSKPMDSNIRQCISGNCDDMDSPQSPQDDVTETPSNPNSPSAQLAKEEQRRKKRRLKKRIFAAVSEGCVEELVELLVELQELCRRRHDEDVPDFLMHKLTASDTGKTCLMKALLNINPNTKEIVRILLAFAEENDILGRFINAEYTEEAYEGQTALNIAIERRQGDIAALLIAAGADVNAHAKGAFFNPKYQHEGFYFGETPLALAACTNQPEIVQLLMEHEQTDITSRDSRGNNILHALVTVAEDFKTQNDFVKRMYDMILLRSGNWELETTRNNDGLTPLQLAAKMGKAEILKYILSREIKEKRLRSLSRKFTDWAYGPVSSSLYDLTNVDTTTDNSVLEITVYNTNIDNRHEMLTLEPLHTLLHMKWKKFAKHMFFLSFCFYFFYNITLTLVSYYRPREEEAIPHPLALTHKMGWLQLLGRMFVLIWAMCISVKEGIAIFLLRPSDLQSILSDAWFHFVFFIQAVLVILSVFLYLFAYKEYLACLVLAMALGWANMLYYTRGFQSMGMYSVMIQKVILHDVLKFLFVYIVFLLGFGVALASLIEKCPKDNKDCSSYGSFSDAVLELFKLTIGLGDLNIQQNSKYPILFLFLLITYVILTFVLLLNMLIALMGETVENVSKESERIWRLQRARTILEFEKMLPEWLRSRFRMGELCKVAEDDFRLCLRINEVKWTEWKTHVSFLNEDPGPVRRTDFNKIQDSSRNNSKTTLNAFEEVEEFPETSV

Turning to `O=[N+]([O-])c1cc(-c2ccccc2)ccc1N1CC[C@H](Oc2ccc3cc(Cl)ccc3n2)C1` [Compound 1-70, (S)-6-chloro-2-(1-(3-nitrobiphenyl-4-yl)pyrrolidin-3-yloxy)quinoline], the “hTRPV3 HAMA IC50 (nM) (5 min)” value in test [1] is reported as “no fit (5 min)”. Besides, the IC50 in test [2] (setting [3]) is above 1000 nM; in test [2] (setting [4]) it was above 3200 nM; in test [2] (setting [5]), above 1000 nM; in test [2] (setting [6]), above 3200 nM.

With `Nc1cc(-c2ccccc2)ccc1N1CC[C@H](Oc2ccc3cc(Cl)ccc3n2)C1` [Compound 1-71, (S)-4-(3-(6-chloroquinolin-2-yloxy)pyrrolidin-1-yl)biphenyl-3-amine], the “hTRPV3 HAMA IC50 (nM) (5 min)” value in test [1] is recorded as “no fit (5 min)”. In addition, the IC50 in test [2] (setting [4]) is above 3200 nM; in test [2] (setting [6]), above 3200 nM; in test [2] (hTRPV3 Patch P1 Inwd (nM), Phase 1 current, inward, whole-cell patch clamp), above 1000 nM; in test [2] (hTRPV3 Patch P2 Inwd (nM), Phase 2 current, inward, whole-cell patch clamp), above 1000 nM.

`NC(=O)c1c(-c2ccccc2)cccc1N1CC[C@H](Oc2ccc(C(F)(F)F)cn2)C1` [Compound 1-72, (S)-3-(3-(5-(trifluoromethyl)pyridin-2-yloxy)pyrrolidin-1-yl)biphenyl-2-carboxamide]: the “hTRPV3 HAMA IC50 (nM) (5 min)” value in test [1] is given as “no fit (5 min)”. Also, in test [2] (Phase 1 current), the “hTRPV3 (nM) (Phase 1)” value was “Agonist”. Further, the IC50 in test [2] (setting [5]) was above 1000 nM; in test [2] (setting [6]) it was above 3200 nM.

On to `CCOC(=O)COc1cc(-c2ccccc2)ccc1N1CC[C@H](Oc2ccc(C(F)(F)F)cn2)C1` [Compound 1-134, (S)-ethyl 2-(4-(3-(5-(trifluoromethyl)pyridin-2-yloxy)pyrrolidin-1-yl)biphenyl-3-yloxy)acetate], for which, in test [1], the “hTRPV3 HAMA IC50 (nM) (5 min)” value is reported as “no fit (5 min)”. Also, the IC50 in test [2] (setting [3]) was above 1000 nM; in test [2] (setting [4]), around 4820 nM; in test [2] (setting [5]) it was above 1000 nM; in test [2] (setting [6]), above 3200 nM.

As for `OCc1cc(-c2ccccc2C(F)(F)F)ccc1N1CC[C@H](Oc2ccc(C(F)(F)F)cn2)C1` [Compound 1-152, (S)-(2′-(trifluoromethyl)-4-(3-(5-(trifluoromethyl)pyridin-2-yloxy)pyrrolidin-1-yl)biphenyl-3-yl)methanol], in test [1], the “hTRPV3 HAMA IC50 (nM) (5 min)” value was “no fit (5 min)”. Besides, the IC50 is 10 to 100 nM in test [2] (setting [3]) and 20.4 nM in test [2] (setting [4]).

On to `CCc1ccccc1-c1ccc(N2CC[C@H](Oc3ccc(C)cn3)C2)c(CO)n1` [Compound 1-185, (S)-(6-(2-ethylphenyl)-3-(3-(5-methylpyridin-2-yloxy)pyrrolidin-1-yl)pyridin-2-yl)methanol], for which the “hTRPV3 HAMA IC50 (nM) (5 min)” value in test [1] was “no fit (5 min) no fit (30 min)”. Further, the “hTRPV3 HAMA IC50 (nM) (30 min)” value in test [1] is “no fit (5 min) no fit (30 min)”. Also, the IC50 in test [2] (setting [3]) is above 1000 nM; in test [2] (setting [4]) it was above 3200 nM; in test [2] (setting [5]), above 1000 nM; in test [2] (setting [6]), 2950 nM.

In the case of `COc1ccccc1-c1ccc(N2CC[C@H](Oc3ncccc3C)C2)c(CO)n1` [Compound 1-186, (S)-(6-(2-methoxyphenyl)-3-(3-(3-methylpyridin-2-yloxy)pyrrolidin-1-yl)pyridin-2-yl)methanol], in test [1], the “hTRPV3 HAMA IC50 (nM) (5 min)” value is given as “no fit (5 min) no fit (30 min)”. Also, in test [1], the “hTRPV3 HAMA IC50 (nM) (30 min)” value is reported as “no fit (5 min) no fit (30 min)”. Also, the IC50 in test [2] (setting [3]) is above 1000 nM; in test [2] (setting [4]), 1010 nM; in test [2] (setting [5]), 100 to 1000 nM; in test [2] (setting [6]), 980 nM.

On to `CCc1ccccc1-c1ccc(N2CC[C@H](Oc3ncccc3C)C2)c(CO)n1` [Compound 1-187, (S)-(6-(2-ethylphenyl)-3-(3-(3-methylpyridin-2-yloxy)pyrrolidin-1-yl)pyridin-2-yl)methanol], for which the “hTRPV3 HAMA IC50 (nM) (5 min)” value in test [1] is on record as “no fit (5 min) no fit (30 min)”. For the same compound, the “hTRPV3 HAMA IC50 (nM) (30 min)” value in test [1] was “no fit (5 min) no fit (30 min)”. In addition, the IC50 in test [2] (setting [3]) is 100 to 1000 nM; in test [2] (setting [4]), 720 nM; in test [2] (setting [5]), above 1000 nM; in test [2] (setting [6]) it was around 1000 nM.

On to `OCc1ncc(-c2ccccc2)cc1N1CC[C@H](Oc2ccc(C(F)(F)F)cn2)C1` [Compound 1-188, (S)-(5-phenyl-3-(3-(5-(trifluoromethyl)pyridin-2-yloxy)pyrrolidin-1-yl)pyridin-2-yl)methanol], for which, in test [1], the “hTRPV3 HAMA IC50 (nM) (5 min)” value is reported as “no fit (5 min) no fit (30 min)”. Besides, the “hTRPV3 HAMA IC50 (nM) (30 min)” value in test [1] is listed as “no fit (5 min) no fit (30 min)”. Further, the figures for the IC50 in test [2] (setting [3]) and in test [2] (setting [4]) were above 1000 nM and above 3200 nM, respectively.

Consider `Cc1cccnc1O[C@H]1CCN(c2ccc(-c3ccccc3Cl)cc2CCO)C1` [Compound 1-194, (S)-2-(2′-chloro-4-(3-(3-methylpyridin-2-yloxy)pyrrolidin-1-yl)biphenyl-3-yl)ethanol], for which the “hTRPV3 HAMA IC50 (nM) (5 min)” value in test [1] is given as “no fit (5 min)”. The IC50 in test [2] (setting [3]) is 100 to 1000 nM; in test [2] (setting [4]), 327 nM.

For the compound `Cc1ccc(O[C@H]2CCN(c3ccc(-c4ccccn4)cc3CO)C2)nc1` [Compound 1-220, (S)-(2-(3-(5-methylpyridin-2-yloxy)pyrrolidin-1-yl)-5-(pyridin-2-yl)phenyl)methanol], in test [1], the “hTRPV3 HAMA IC50 (nM) (5 min)” value is reported as “no fit (5 min) no fit (30 min)” and the “hTRPV3 HAMA IC50 (nM) (30 min)” value is recorded as “no fit (5 min) no fit (30 min)”. Besides, the IC50 in test [2] (setting [3]) is above 1000 nM. The IC50 in test [2] (setting [4]) is above 3200 nM.

Regarding `OCc1ccc(Oc2ccccc2Cl)cc1N1CC[C@H](Oc2ccc(C(F)(F)F)cn2)C1` [Compound 1-224, (S)-(4-(2-chlorophenoxy)-2-(3-(5-(trifluoromethyl)pyridin-2-yloxy)pyrrolidin-1-yl)phenyl)methanol], in test [1], the “hTRPV3 HAMA IC50 (nM) (5 min)” value is recorded as “no fit (5 min) no fit (30 min)” and the “hTRPV3 HAMA IC50 (nM) (30 min)” value is “no fit (5 min) no fit (30 min)”. Moreover, the IC50 in test [2] (setting [3]) was 100 to 1000 nM. Also, in test [2] (setting [4]), the IC50 was 161 nM.

`OCc1ccc(-c2ccccc2Cl)cc1N1CC[C@H](Oc2ccc(C(F)(F)F)cn2)C1` [Compound 1-225, (S)-(2′-chloro-3-(3-(5-(trifluoromethyl)pyridin-2-yloxy)pyrrolidin-1-yl)biphenyl-4-yl)methanol]: in test [1], the “hTRPV3 HAMA IC50 (nM) (5 min)” value is given as “no fit (5 min) no fit (30 min)” and the “hTRPV3 HAMA IC50 (nM) (30 min)” value is on record as “no fit (5 min) no fit (30 min)”. The IC50 in test [2] (setting [3]) was in the range of 100 to 1000 nM. Further, in test [2] (setting [4]), the IC50 came out at 215 nM.

As to `Cc1ccccc1Oc1ccc(N2CC[C@H](Oc3ccc(C(F)(F)F)cn3)C2)c(CO)n1` [Compound 1-226, (S)-(6-(o-tolyloxy)-3-(3-(5-(trifluoromethyl)pyridin-2-yloxy)pyrrolidin-1-yl)pyridin-2-yl)methanol], in test [1], the “hTRPV3 HAMA IC50 (nM) (5 min)” value is “no fit (5 min) no fit (30 min)” and the “hTRPV3 HAMA IC50 (nM) (30 min)” value is given as “no fit (5 min) no fit (30 min)”. In addition, the IC50 in test [2] (setting [3]) is 100 to 1000 nM. Further, the IC50 in test [2] (setting [4]) was around 158 nM.

Regarding `CCc1ccccc1-c1ccc(CO)c(N2CC[C@H](Oc3ccc(C(F)(F)F)cn3)C2)c1` [Compound 1-227, (S)-(2′-ethyl-3-(3-(5-(trifluoromethyl)pyridin-2-yloxy)pyrrolidin-1-yl)biphenyl-4-yl)methanol], the “hTRPV3 HAMA IC50 (nM) (5 min)” value in test [1] is recorded as “no fit (5 min) no fit (30 min)”. The “hTRPV3 HAMA IC50 (nM) (30 min)” value in test [1] is given as “no fit (5 min) no fit (30 min)”. For the same compound, the IC50 was 100 to 1000 nM in test [2] (setting [3]) and 200 nM in test [2] (setting [4]).

As for `CCc1ccccc1Oc1ccc(CO)c(N2CC[C@H](Oc3ccc(C(F)(F)F)cn3)C2)c1` [Compound 1-228, (S)-(4-(2-ethylphenoxy)-2-(3-(5-(trifluoromethyl)pyridin-2-yloxy)pyrrolidin-1-yl)phenyl)methanol], in test [1], the “hTRPV3 HAMA IC50 (nM) (5 min)” value was “no fit (5 min) no fit (30 min)” and the “hTRPV3 HAMA IC50 (nM) (30 min)” value is “no fit (5 min) no fit (30 min)”. Besides, the IC50 in test [2] (setting [3]) fell in the range of 10 to 100 nM. For the same compound, the IC50 in test [2] (setting [4]) came out at 62.1 nM.

Regarding `Cc1ccccc1Oc1ccc(CO)c(N2CC[C@H](Oc3ccc(C(F)(F)F)cn3)C2)c1` [Compound 1-230, (S)-(4-(o-tolyloxy)-2-(3-(5-(trifluoromethyl)pyridin-2-yloxy)pyrrolidin-1-yl)phenyl)methanol], in test [1], the “hTRPV3 HAMA IC50 (nM) (5 min)” value was “no fit (5 min) no fit (30 min)” and the “hTRPV3 HAMA IC50 (nM) (30 min)” value was “no fit (5 min) no fit (30 min)”. In addition, in test [2] (setting [3]), the IC50 lay within 100 to 1000 nM. Besides, in test [2] (setting [4]), the IC50 came to 198 nM.

As for `OCc1ccc(-c2ccccc2Cl)cc1N1CC[C@H](Oc2ncccc2Cl)C1` [Compound 1-234, (S)-(2′-chloro-3-(3-(3-chloropyridin-2-yloxy)pyrrolidin-1-yl)biphenyl-4-yl)methanol], in test [1], the “hTRPV3 HAMA IC50 (nM) (5 min)” value is “no fit (5 min) no fit (30 min)” and the “hTRPV3 HAMA IC50 (nM) (30 min)” value was “no fit (5 min) no fit (30 min)”. Besides, in test [2] (setting [3]), the IC50 lay in the range of 100 to 1000 nM. In addition, in test [2] (setting [4]), the IC50 was 737 nM.

For `Cc1ccccc1-c1ccc(CO)c(N2CC[C@H](Oc3ccc(C(F)(F)F)cn3)C2)c1` [Compound 1-239, (S)-(2′-methyl-3-(3-(5-(trifluoromethyl)pyridin-2-yloxy)pyrrolidin-1-yl)biphenyl-4-yl)methanol], in test [1], the “hTRPV3 HAMA IC50 (nM) (5 min)” value is reported as “no fit (5 min) no fit (30 min)” and the “hTRPV3 HAMA IC50 (nM) (30 min)” value is “no fit (5 min) no fit (30 min)”. Besides, the IC50 in test [2] (setting [3]) was 100 to 1000 nM. Moreover, the IC50 in test [2] (setting [4]) came to 607 nM.

Consider `Cc1ccccc1-c1ccc(CO)c(N2CC[C@H](Oc3ncccc3Cl)C2)c1` [Compound 1-240, (S)-(3-(3-(3-chloropyridin-2-yloxy)pyrrolidin-1-yl)-2′-methylbiphenyl-4-yl)methanol], for which, in test [1], the “hTRPV3 HAMA IC50 (nM) (5 min)” value is listed as “no fit (5 min) no fit (30 min)” and the “hTRPV3 HAMA IC50 (nM) (30 min)” value is “no fit (5 min) no fit (30 min)”. For the same compound, the IC50 in test [2] (setting [3]) fell in the range of 100 to 1000 nM. For the same compound, the IC50 in test [2] (setting [4]) is 934 nM.
